From patent US9878006B2, “Treatment of obesity and obesity related disorders by pharmalogical targeting of Kv1.3 potassium channels” (The Regents of the University of California, priority 2011, dated 2018)
Like-named read-outs stand apart in the source and are kept apart here.

Tests used:
[1] = test system: brown fat; conditions: man; 1 mg/kg; cited from earlier work
[2] = test system: brown adipose tissue; test: PET scan, 18FDG uptake by brown adipose tissue; type: in vivo, mice
Experimental: (§1) ^18F-FDG was purchased from PETNET. Mice were fasted overnight before CT or PET scan. For PET scan animals were injected with 0.1-0.2 mCi of ^18F-FDG in sterile saline. Approximately, 0.02 to 0.05 ml was administered intravenously (tail vein) under 2% Isoflurane and animal was allowed to remain awake for 60 mins in their cages to allow distribution and uptake of ^18F-FDG. During the scan 2% isoflurane was used and the mouse was laid in the supine position on the scanner. All PET acquisitions were performed with an Inveon (Siemens Medical Solutions) preclinical PET scanner. PET data was acquired for 30 min. When used with PET scanner CT data was obtained immediately after PET imaging without changing the position of the animal. PET images were corrected for attenuation, scatter, randoms, and dead time. Images were reconstructed as 128×128 matrices using a fast MAP algorithm with a smoothing factor of 0.1. CT HU of BAT and WAT was obtained by calibrating the CT data using linear interpolation of water CT Density (CT HU=0) and air CT density (CT HU=−1000). After the scan procedure, animals were allowed to recover from anesthesia, placed in their cages and monitored for normal recovery.
(§2) All scanning data was acquired in full list mode and sorted into a single frame, 3 dimensional sinogram, which was rebinned using a Fourier rebinning algorithm. […]

[3] = test system: brown fat; conditions: rats; 5 mg/kg body wt; cited from earlier work
[4] = test system: skeletal muscle; test: PET imaging, 18FDG uptake by skeletal muscle; type: in vivo, mice; conditions: FIG. 7
Experimental: as §1, §2

[5] = test system: brown adipose tissue cells; conditions: potassium channel blockade; cited from earlier work
[6] = CLAMS metabolic cages: feeding, drinking, RER, energy expenditure; type: in vivo, mice
Description: FIGS. 4A through 4D show feeding and drinking patterns of mice analyzed in negative-flow CLAMS (Comprehensive Lab Animal Monitoring system) metabolic cages. All the animals were habituated with the high fat/high fructose diet for at least 7 days prior to the metabolic cage studies. All animals were placed individually in each metabolic cage and habituated for two days under normal 12 hr. light-dark cycle.
Mice were acclimated for 2 days in the metabolic cages before the measurements were made.
FIGS. 5A through 5D show Respiratory Exchange Ratio (RER) and energy expenditure in vehicle controls (n-2) and ShK-186-treated mice (n=2). RER of 0.70 is when a subject is metabolizing pure fat, whereas RER of 1.0 is when a subject is metabolizing pure carbohydrate.

[7] = test system: white adipose tissue; test: CT scan of white adipose tissue in the diet-induced obesity model; type: in vivo, C57BL/6 mice; conditions: 500 μg/kg; after 45 days on high fat/high fructose diet; vs vehicle; p=0.000708; FIG. 3A/3B
Experimental: Mice were fasted overnight before CT scans. All CT acquisitions were performed with an Inveon (Siemens Medical Solutions) preclinical CT scanner. During the scan 2% isoflurane was used and the mouse was laid in the supine position on the scanner. Images were reconstructed as 128×128 matrices using a fast MAP algorithm with a smoothing factor of 0.1. CT HU of WAT was obtained by calibrating the CT data using linear interpolation of water CT Density (CT HU=0) and air CT density (CT HU=−1000). After the scan procedure, animals were allowed to recover from anesthesia, placed in their cages and monitored for normal recovery. All scanning data was acquired in full list mode and sorted into a single frame, 3 dimensional sinogram, which was rebinned using a Fourier rebinning algorithm. The images were reconstructed using 2 dimensional filter back projection using a Hanning Filter with a Nyquist cut off at 0.5, and corrected for attenuation using the Co-57 attenuation scan data. All CT Data analysis was done using PMOD 3.0 software.

[8] = diet-induced obesity model in mice (high fat/high fructose diet): weight gain and blood glucose; type: in vivo, C57BL/6 mice; conditions: 20, 100 or 500 μg/kg s.c. on alternate days
Experimental: The accompanying figures show the obesity-deterring efficacy of ShK-186 in the diet-induced obesity model in C57BL/J mice (diet composed of 21% fat+60% fructose-water). 8 week old C57BL/6 mice were purchased from Harlan Co. (Indianapolis, Ind.). They were fed a specialized high fat diet (#TD88137; 21% fat) purchased from Harlan Co. (Indianapolis, Ind.), and they received a 60% fructose solution to drink. The mice were administered vehicle (P6N) or ShK-186 (20, 100 or 500 μg/kg) by subcutaneous injections on alternate days. Animals were weighed on alternate days. Blood glucose levels were monitored every 6 days by tail-vein sampling using an Accu-Chek compact glucometer from Roche. The animal experimental protocol was approved by the Institutional Animal Care and Use Committee at University of California, Irvine.
All mice received the high fat/high fructose diet throughout the trial. They received vehicle (P6N) or ShK-186 (20, 100 or 500 μg/kg) on alternate days by subcutaneous injection. The weight is normalized to the average weight at the start of the study. All the mice in this study were males. Using repeated measures ANOVA, the p value <0.0001 for all the ShK-186 doses.

[9] = n=2, vs vehicle controls, FIG. 5A-5D

**Q.** Which “18-fluoro-deoxyglucose uptake into brown fat” value [1] does the source give for CC(C)NCC(O)COc1cccc2ccccc12 (centres unmarked) [propranolol, reference compound] here?
**A.** The value was “has the same effect”.

**Q.** And the “inhibition of 18FDG uptake by brown adipose tissue” value ([2]; propranolol 5 m/kg, FIG. 6B)?
**A.** Its value is “inhibited”.

**Q.** What about the “18-fluoro-deoxyglucose uptake into brown fat” value [3] of the same compound?
**A.** The value was “eliminates ^18-fluoro-deoxyglucose uptake into brown fat”.

**Q.** And the “inhibition of ShK-186-increased 18FDG uptake by skeletal muscle” value ([4]; propranolol 5 mg/kg)?
**A.** The value was “did not inhibit this uptake”.

**Q.** For CC[N+](CC)(CC)CC [tetraethylammonium], which “metabolic response of brown adipose tissue cells to adrenergic stimulation” value [5] is on record?
**A.** Its value is “does not alter the metabolic response of brown adipose tissue cells to adrenergic stimulation”.

**Q.** With “p-phospho-Tyr-AEEAc-Arg-Ser-Cys-Ile-Asp-Thr-Ile-Pro-Lys-Ser-Arg-Cys-Thr-Ala-Phe-Gln-Cys-Lys-His-Ser-Met-Lys-Tyr-Arg-Leu-Ser-Phe-Cys-Arg-Lys-Thr-Cys-Gly-Thr-Cys [ShK-186]” as the compound, how does the “18FDG uptake by brown adipose tissue” value ([2]; ShK-186 at 100 and 500 μg/kg, FIG. 6A) read?
**A.** The value was “induces ^18FDG-uptake by brown adipose tissue”.

**Q.** And the “feeding and drinking pattern” value ([6]; given at onset of the measuring phase, controls feed and drink in dark cycle only, p<0.05 after first 24 hrs, FIG. 4A-4D)?
**A.** Its value is “feed and drink during both dark and light cycles”.

**Q.** And the “Respiratory Exchange Ratio (RER), substrate metabolized” value ([6]; n=2, especially during the light cycle, FIG. 5A-5D)?
**A.** Its value is “metabolize more carbohydrate than fat”.

**Q.** What about the “energy expenditure during the day” value [6, 9] of the same compound?
**A.** Its value is “greater energy expenditure during the day”.

**Q.** And the “energy expenditure during the night” value [6, 9]?
**A.** The value was “roughly equivalent energy expenditure during the night”.

**Q.** And the “18FDG uptake by skeletal muscle” value ([4]; ShK-186 at 20, 100 and 500 μg/kg)?
**A.** The value was “increased ^18FDG uptake by skeletal muscle”.

**Q.** And the “volume of white adipose tissue” value [7]?
**A.** The value was “significantly reduced the volume of white adipose tissue”.

**Q.** And the blood glucose levels ([8]; measured every 6 days, FIG. 1B)?
**A.** Its blood glucose levels is “without changing blood glucose levels”.

**Q.** What about the weight gain ([8]; vs vehicle, dose-dependent, p<0.0001 for all doses, FIG. 1A) of the same compound?
**A.** The weight gain was “significantly reduced weight gain”.
